According to US5208032A, “Increasing the growth of turkeys using implant of 19-nortestosterone” (Rutgers, The State University of New Jersey, priority 1992, dated 1993):

Assays:
testosterone antiserum = settings: manufacturer statement; cited from earlier work
[1] = Comparison of effect of 19-nortestosterone and 5-alpha-DHT on growth in castrated male White Leghorn chickens (Study V, Table III); assay type: in vivo; settings: for Abdominal Adipose / Final Shank-toe Length / Right Breast Muscle: 6 weeks; for Abdominal Adipose Change / Final 6-week Body Wt. Change / Final Shank-toe Length Change / Right Breast Muscle Change: given unsigned (decrease vs cholesterol); for Final 6-week Body Wt.: minus comb + wattle weight
Experimental: (§1) The single comb White Leghorn strain (Dekalb XL) of chicken (Avian Services, Frenchtown, N.J.) was used in all studies. Chicks were obtained on the day following hatch and were then maintained in a well ventilated, temperature- and humidity-controlled animal room. Chicks were housed in temperature-controlled (access to small brood chambers--32° to 35° C.), wire-floored, 5-tier brooder batteries (measuring 0.74 W×1.55 L×0.27 H m per tier) until termination of respective studies. A 12 hour light:12 hour dark photoperiod was maintained at all times within the animal room. Feed and water were available ad libitum, with a standard commercial diet (Agway; Bordentown, N.J.), chick starter mash, fed to chicks 1 to 42 days of age, and then from 43 to 84 days, grower mash was provided (manufacturer statement on ration compositions are shown in Table 2).
(§2) Excluding Study II, chicks were either castrated (Quigley, 1967) or sham-operated at 13 days of age. Prior to castration, cockerels were deprived of feed and water for 24 hours in order that the intestines may become empty and thus permit better vision into the body cavity and accessibility to testes. Birds were restrained by fastening the wings and legs with leather straps so that sufficient tension was applied to hold the bird well stretched out in a lateral recumbency (on its left side). Next, an approximate 1 inch incision was made midway between the last two ribs and a small rib spreader inserted to hold the ribs about 1/2 inch apart.
(§3) Forceps were used to remove both testicles, with the lower or left testicle removed first. The forceps were carefully worked over the testicle and so manipulated as to enclose the entire organ. It was then drawn out with a slight twisting motion. At this step, care was taken not to rupture any of the primary blood vessels. When the rib spreader was removed, and the tension on the bird released (i.e., leg and wing straps removed), the skin and thigh muscles slipped back over the incision thus affording a natural protection. No special care was necessary for surgically manipulated birds other than to puncture "air pockets" which developed under the skin due to air escaping from within the abdominal cavity before the incision between the ribs was healed.
(§4) In all studies, chicks were rank-ordered by weight, wing-banded and distributed into treatment groups of equal body weights at 14 days of age. Excluding Study I, e.g., in which male, female and castrate male comparisons were made, all control groups were implanted with 1.0-cm length cholesterol-filled Silastic polysiloxane implants (i.e., steroid surface exposure of 1.0-cm; actual length was 2.0-cm with 1/2 cm wood dowel plugs placed at each end of implant). The remaining treatment groups consisted of chicks (male, female or castrated male) implanted with either testosterone-, 5-alpha-DHT-, 5-beta-DHT-, estradiol-17-beta-, or 19-nortestosterone-filled Silastic polysiloxane implants with steriod surface exposures of either 0.3, 1.0 or 3.0 cm in length. Steroid implants were prepared by manually packing respective crystalline steroids (Steraloids; Wilton, N.H.) into Silastic Medical Grade tubing (1.57 mm i.d.; Dow Corning) (Smith et al., 1977). The amounts of steroid contained in the implants were as follows (mean±SEM of 20 randomly chosen implants, 5 for each steroid): 2.6±0.2 mg (0.3-cm), 8.9±0.4 mg (1.0-cm), and 29.2±0.7 mg 3.0-cm). At the time of group assignment, implants were placed in the subcutaneous (S.C.) layer of skin behind the neck. Supplemental steroid implants (containing doses of steroids equivalent to those of the initial implants) were implanted at 6 and 10 weeks of age, without removal of prior implants, to ensure adequate androgen replacement with increasing growth. Cage floors and fecal collection trays were checked for 2 consecutive days following each implantation session to ensure completeness of procedure. […]

[2] = Comparison of effect on growth in castrated male White Leghorn chickens (Study IV, Table II); assay type: in vivo
Experimental: as §1, §2, §3, §4

[3] = 0.3-cm implant, given unsigned (decrease vs cholesterol)
[4] = 1.0-cm implant, given unsigned (decrease vs cholesterol)
[5] = 3.0-cm implant, given unsigned (decrease vs cholesterol)
[6] = 0.1-cm implant (so in the source)

Structure (SMILES): C[C@]12CCC(=O)C[C@@H]1CC[C@@H]1[C@@H]2CC[C@]2(C)[C@@H](O)CC[C@@H]12 [5-alpha-DHT, 5-alpha-dihydrotestosterone]
- cross-reaction with Immuchem testosterone antiserum (testosterone antiserum): 7.8%
- Abdominal Adipose ([1]; 1.0-cm implant): 2.05 ± 0.12 g
- Final Shank-toe Length ([1]; 1.0-cm implant): 11.4 ± 0.07 cm
- Right Breast Muscle ([1]; 1.0-cm implant): 16.3 ± 0.67 g
- Abdominal Adipose Change ([1]; 1.0-cm implant): 33%
- Final 6-week Body Wt. Change ([1]; 1.0-cm implant): 8.6%
- Final Shank-toe Length Change ([1]; 1.0-cm implant): 4.2%
- Right Breast Muscle Change ([1]; 1.0-cm implant): 17.7%
- Final 6-week Body Wt. ([1]; 1.0-cm implant): 422 ± 10 g
- 6-week Body Wt. ([2]; 0.3-cm implant): 515 ± 10 g
- 12-week Body Wt. ([2]; 0.3-cm implant): 1191 ± 26 g
- Adipose Abdominal ([2]; 0.3-cm implant): 10 ± 2 g
- Final 12-week Shank-toe Length ([2]; 0.3-cm implant): 16.4 ± 0.10 cm
- Right Breast Muscle ([2]; 0.3-cm implant): 57 ± 2 g
- 12-week Body Wt. Change [2, 3]: 6.9%
- Adipose Abdominal Change [2, 3]: 58.3%
- Final 12-week Shank-toe Length Change [2, 3]: 3.5%
- Right Breast Muscle Change [2, 3]: 10.9%
- 6-week Body Wt. ([2]; 1.0-cm implant): 485 ± 12 g
- 12-week Body Wt. ([2]; 1.0-cm implant): 1140 ± 39 g
- Adipose Abdominal ([2]; 1.0-cm implant): 6 ± 1 g
- Final 12-week Shank-toe Length ([2]; 1.0-cm implant): 16.1 ± 0.24 cm
- Right Breast Muscle ([2]; 1.0-cm implant): 51 ± 3 g
- 12-week Body Wt. Change [2, 4]: 10.9%
- Adipose Abdominal Change [2, 4]: 75.0%
- Final 12-week Shank-toe Length Change [2, 4]: 5.3%
- Right Breast Muscle Change [2, 4]: 15.6%
- 6-week Body Wt. ([2]; 3.0-cm implant): 415 ± 15 g
- 12-week Body Wt. ([2]; 3.0-cm implant): 872 ± 53 g
- Adipose Abdominal ([2]; 3.0-cm implant): 0.5 ± 0.2 g
- Final 12-week Shank-toe Length ([2]; 3.0-cm implant): 13.7 ± 0.34 cm
- Right Breast Muscle ([2]; 3.0-cm implant): 36 ± 3 g
- 6-week Body Wt. Change [2, 5]: 19.1%
- 12-week Body Wt. Change [2, 5]: 31%
- Adipose Abdominal Change [2, 5]: 97.9%
- Final 12-week Shank-toe Length Change [2, 5]: 19.4%
- Right Breast Muscle Change [2, 5]: 43.8%

Structure (SMILES): C[C@]12CC[C@H]3[C@@H](CCC4=CC(=O)CC[C@@H]43)[C@@H]1CC[C@@H]2O [19-Nortestosterone, 19-nortestosterone]
- Abdominal Adipose ([1]; 0.3-cm implant): 1.26 ± 0.19 g
- Final Shank-toe Length ([1]; 0.3-cm implant): 10.8 ± 0.13 cm
- Right Breast Muscle ([1]; 0.3-cm implant): 13.9 ± 1.1 g
- Abdominal Adipose Change ([1]; 0.3-cm implant): 58%
- Final 6-week Body Wt. Change ([1]; 0.3-cm implant): 16.9%
- Final Shank-toe Length Change ([1]; 0.3-cm implant): 9.2%
- Right Breast Muscle Change ([1]; 0.3-cm implant): 29.8%
- Final 6-week Body Wt. ([1]; 0.3-cm implant): 384 ± 18 g
- Abdominal Adipose ([1]; 1.0-cm implant): 0.26 ± 0.08 g
- Final Shank-toe Length ([1]; 1.0-cm implant): 10.2 ± 0.12 cm
- Right Breast Muscle ([1]; 1.0-cm implant): 13.2 ± 0.87 g
- Abdominal Adipose Change ([1]; 1.0-cm implant): 91%
- Final 6-week Body Wt. Change ([1]; 1.0-cm implant): 24.0%
- Final Shank-toe Length Change ([1]; 1.0-cm implant): 14.3%
- Right Breast Muscle Change ([1]; 1.0-cm implant): 33.3%
- Final 6-week Body Wt. ([1]; 1.0-cm implant): 351 ± 13 g
- Abdominal Adipose ([1]; 3.0-cm implant): 0.58 ± 0.12 g
- Final Shank-toe Length ([1]; 3.0-cm implant): 9.8 ± 0.17 cm
- Right Breast Muscle ([1]; 3.0-cm implant): 12.0 ± 0.96 g
- Abdominal Adipose Change ([1]; 3.0-cm implant): 81%
- Final 6-week Body Wt. Change ([1]; 3.0-cm implant): 24.5%
- Final Shank-toe Length Change ([1]; 3.0-cm implant): 17.6%
- Right Breast Muscle Change ([1]; 3.0-cm implant): 39.4%
- Final 6-week Body Wt. ([1]; 3.0-cm implant): 349 ± 19 g

Structure (SMILES): C[C@]12CC[C@H]3[C@@H](CCC4=CC(=O)CC[C@@]43C)[C@@H]1CC[C@@H]2O [Testosterone, testosterone]
- cross-reaction with Immuchem testosterone antiserum (testosterone antiserum): 100%
- 6-week Body Wt. [2, 6]: 503 ± 10 g
- 12-week Body Wt. [2, 6]: 1287 ± 25 g
- Adipose Abdominal [2, 6]: 15 ± 3 g
- Final 12-week Shank-toe Length [2, 6]: 16.9 ± 0.14 cm
- Right Breast Muscle [2, 6]: 61 ± 2 g
- Adipose Abdominal Change ([2]; 0.1-cm implant (so in the source), given unsigned (decrease vs cholesterol)): 37.5%
- 6-week Body Wt. ([2]; 0.3-cm implant): 501 ± 13 g
- 12-week Body Wt. ([2]; 0.3-cm implant): 1262 ± 35 g
- Adipose Abdominal ([2]; 0.3-cm implant): 16 ± 2 g
- Final 12-week Shank-toe Length ([2]; 0.3-cm implant): 17.0 ± 0.16 cm
- Right Breast Muscle ([2]; 0.3-cm implant): 61 ± 2 g
- Adipose Abdominal Change [2, 3]: 33.3%
- 6-week Body Wt. ([2]; 3.0-cm implant): 505 ± 13 g
- 12-week Body Wt. ([2]; 3.0-cm implant): 1207 ± 25 g
- Adipose Abdominal ([2]; 3.0-cm implant): 10 ± 3 g
- Final 12-week Shank-toe Length ([2]; 3.0-cm implant): 16.4 ± 0.16 cm
- Right Breast Muscle ([2]; 3.0-cm implant): 55 ± 2 g
- 12-week Body Wt. Change [2, 5]: 5.6%
- Adipose Abdominal Change [2, 5]: 58.3%
- Final 12-week Shank-toe Length Change [2, 5]: 3.5%
- Right Breast Muscle Change [2, 5]: 14.1%
